± gives the expanded uncertainty stated by the source.
Experiment: activity coefficient (dimensionless); of the first substance listed, at infinite dilution; xn = mol fraction of the nth substance listed
Settings: Liquid, Chromatography, x1 = 0

SMILES	activity coefficient (323.15 K)	activity coefficient (333.15 K)	activity coefficient (343.15 K)
CCCCCCCC [octane] + Cn1cc[n+](COCCCOC[n+]2ccn(C)c2)c1.O=S(=O)([N-]S(=O)(=O)C(F)(F)F)C(F)(F)F.O=S(=O)([N-]S(=O)(=O)C(F)(F)F)C(F)(F)F	60.4 ± 4.1	60.6 ± 4.2	38.4 ± 2.6
CCCCCCCC [octane] + CCCOC[n+]1ccn(C)c1.N#C[N-]C#N	155 ± 11	135 ± 9.2	112 ± 7.7
C#CCCCC [1-hexyne] + CCCCCCCCn1cc[n+](COCCC)c1C.O=S(=O)([N-]S(=O)(=O)C(F)(F)F)C(F)(F)F	1.39 ± 0.09	1.36 ± 0.09	1.34 ± 0.09
CCC[N+](=O)[O-] [1-nitropropane] + CCCCCCCCn1cc[n+](COCCC)c1C.N#C[N-]C#N	0.76 ± 0.05	0.75 ± 0.05	0.75 ± 0.05
CC(C)CO [2-methyl-1-propanol] + CCCOC[n+]1ccn(Cc2ccccc2)c1.N#C[N-]C#N	0.9 ± 0.06	0.86 ± 0.06	
CCc1ccccc1 [ethylbenzene] + Cn1cc[n+](COCCCOC[n+]2ccn(C)c2)c1.N#C[N-]C#N.N#C[N-]C#N	11.2 ± 0.77	10.9 ± 0.75	10.7 ± 0.73
CCC(C)=O [butanone] + N#C[N-]C#N.N#C[N-]C#N.c1ccc(Cn2cc[n+](COCCCOC[n+]3ccn(Cc4ccccc4)c3)c2)cc1	1.78 ± 0.12	1.55 ± 0.1	1.41 ± 0.09
CCC(C)CC [3-methylpentane] + Cn1cc[n+](COCCCOC[n+]2ccn(C)c2)c1.O=S(=O)([N-]S(=O)(=O)C(F)(F)F)C(F)(F)F.O=S(=O)([N-]S(=O)(=O)C(F)(F)F)C(F)(F)F	39.2 ± 2.7	14.4 ± 1	
ClCCl [dichloromethane] + CCCCCCCCn1cc[n+](COCCC)c1C.N#C[N-]C#N	0.34 ± 0.03	0.37 ± 0.03	0.37 ± 0.03
CCc1ccccc1 [ethylbenzene] + CCCCCCCCn1cc[n+](COCCCOC[n+]2ccn(CCCCCCCC)c2C)c1C.O=S(=O)([N-]S(=O)(=O)C(F)(F)F)C(F)(F)F.O=S(=O)([N-]S(=O)(=O)C(F)(F)F)C(F)(F)F	0.75 ± 0.05	0.73 ± 0.05	0.74 ± 0.05
CCCCO [butan-1-ol] + CN(C)c1cc[n+](COCCCOC[n+]2ccc(N(C)C)cc2)cc1.O=S(=O)([N-]S(=O)(=O)C(F)(F)F)C(F)(F)F.O=S(=O)([N-]S(=O)(=O)C(F)(F)F)C(F)(F)F	1.95 ± 0.13	1.64 ± 0.11	1.58 ± 0.1
CC1CCCCC1 [methylcyclohexane] + CCCOC[n+]1ccn(C)c1.N#C[N-]C#N	44.3 ± 3	39.6 ± 2.7	35.6 ± 2.4
CCCCCCCC [octane] + CN(C)c1cc[n+](COCCCOC[n+]2ccc(N(C)C)cc2)cc1.O=S(=O)([N-]S(=O)(=O)C(F)(F)F)C(F)(F)F.O=S(=O)([N-]S(=O)(=O)C(F)(F)F)C(F)(F)F	37.9 ± 2.6	34.5 ± 2.4	30 ± 2
C1CCCCC1 [cyclohexane] + CCCOC[n+]1ccc(N(C)C)cc1.O=S(=O)([N-]S(=O)(=O)C(F)(F)F)C(F)(F)F	7.06 ± 0.48	6.83 ± 0.47	6.37 ± 0.43
c1ccsc1 [thiophene] + Cn1cc[n+](COCCCOC[n+]2ccn(C)c2)c1.O=S(=O)([N-]S(=O)(=O)C(F)(F)F)C(F)(F)F.O=S(=O)([N-]S(=O)(=O)C(F)(F)F)C(F)(F)F	0.77 ± 0.05	0.78 ± 0.05	0.78 ± 0.05
c1ccsc1 [thiophene] + CCCOC[n+]1ccc(N(C)C)cc1.O=S(=O)([N-]S(=O)(=O)C(F)(F)F)C(F)(F)F	0.65 ± 0.04	0.69 ± 0.05	0.69 ± 0.05

From the NIST ThermoML archive (doi:10.1016/j.fluid.2014.11.020)
